Results on five compounds are retold here after patent publication US5304369A, “Chlorohexidine adduct and method of preparing same” (Ivoclar AG, priority 1991, dated 1994).

Data set [1] deals with Streptococcus mutans. Nature of the data set: Agar diffusion test with Streptococcus mutans (inhibiting zone diameters). The format is cell-based. Conditions: for Antibacterial action (in words): 0.003 wt.-%; for Bactericidal effectiveness (in words): concentrations smaller than or equal to 0.01 wt.-%. On the procedure:
For this purpose, culture suspensions of Streptococcus mutans were added to a liquid Agar comprising yeast extract and dextrose. After the Agar plates had solidified, a hole of 10 mm diameter was cut out, into which 0.1 ml of the solution to be tested was poured in each case. After 24 hours of incubation at 37° C., the diameters of the inhibiting zones were measured for each sample, which were duplicated in each case.

The conditions of data set [2]: higher concentrations; cited from earlier work.
Data set [3] has as its system Streptococcus mutans. The note with it: cited from earlier work.
The nature of data set [4]: Solubility in common solvents and reactive diluents. It is filed as physicochemical.
The nature of data set [5]: Side-effects in use (bitter taste, discolorations, irritations of the mucosa).
For data set [6] the following is noted: background, cited from earlier work.
Setting [7] is: 0.03 wt. %, 0.1 ml in 10 mm hole, 24 hours, 37° C.

Values after ≈ are worked out from the molar mass of the structure shown. Read-outs that look alike come from different tables or passages of the source. Bounds are passed on as bounds.

For the compound `[F][Sn][F]` [Solution C, stannous difluoride], the Inhibiting zone diameter in the data set on Streptococcus mutans [1] (0.003 wt. %, 0.1 ml in 10 mm hole, 24 hours, 37° C., * = Not effective) is reported as 10 mm; in the data set with Streptococcus mutans [1] (0.01 wt. %, 0.1 ml in 10 mm hole, 24 hours, 37° C.), 11 mm; in the data set with Streptococcus mutans [1] (setting [7]), 20 mm. Besides, the “Antibacterial action (in words)” value is “Not effective” in the data set with Streptococcus mutans [1] and “an antibacterial action can no longer be detected” in the data set on Streptococcus mutans [1] (listed as stannous difluoride). Further, the “Antibacterial effectiveness (in words)” value with Streptococcus mutans [1] (0.03 wt.-%) is recorded as “even stronger action”.
Take `[H]/N=C(\N/C(=N/[H])NCCCCCCNC(=N)NC(=N)Nc1ccc(Cl)cc1)Nc1ccc(Cl)cc1` [chlorohexidine, 1,6-bis-(N^5-p-chlorophenyl-N'-diguanido)-hexane]: the “Dis-colorations of the tongue, teeth, prostheses and fillings” value in data set [2] is reported as “can lead to unwanted dis-colorations”. In addition, the “Bactericidal effectiveness (in words)” value in the data set on Streptococcus mutans [1] was “clearly exceeded”. Moreover, in the data set with Streptococcus mutans [3], the “Effectiveness against bacteria of the type Streptococcus mutans (in words)” value is given as “effective”. In addition, the “Bactericidal effect vis-a-vis Streptococcus mutans (in words)” value with Streptococcus mutans [3] (small concentrations) is given as “greatly weakened”.
`[H]/N=C(\N/C(=N/[H])NCCCCCCNC(=N)NC(=N)Nc1ccc(Cl)cc1)Nc1ccc(Cl)cc1` [chlorohexidine adduct, chlorohexidine hexahydrofluoride]: the Inhibiting zone diameter came to 12 mm with Streptococcus mutans [1] (0.003 wt. %, 0.1 ml in 10 mm hole, 24 hours, 37° C., * = Not effective, listed as Solution B); 15 mm in the data set on Streptococcus mutans [1] (0.01 wt. %, 0.1 ml in 10 mm hole, 24 hours, 37° C., listed as Solution B); 17 mm in the data set on Streptococcus mutans [1] (setting [7]). In addition, the “Antibacterial effectiveness (in words)” value is on record as “still very high” in the data set with Streptococcus mutans [1] (0.01 to 0.003 wt.-%); “comparable with that of chlorohexidine gluconate” with Streptococcus mutans [1] (0.03 wt.-%); “completely comparable” with Streptococcus mutans [1] (0.03 wt.-%, listed as adduct according to the invention). For the same compound, the “Bactericidal effectiveness (in words)” value in the data set with Streptococcus mutans [1] is on record as “clearly superior to stannous difluoride”. In addition, the Solubility in data set [4] (Acetone) was 0.03 wt. %; in data set [4] (Decandiol dimethacrylate (D3 MA)), < 0.005 wt. %; in data set [4] (Ethanol) it was 0.005 wt. %; in data set [4] (Ethyl acetate), 0.02 wt. %; in data set [4] (Triethylene glycol dimethacrylate (SR-205)), < 0.005 wt. %; in data set [4] (Water (pH value 2 to 9.7), read-out: Solubility), 300 µg/mL (≈ 594 µM). For the same compound, the “Solubility (in words)” value in data set [4] (common solvents) is reported as “quite a low solubility”. Moreover, the “Unwanted side-effects (bitter taste, discolorations of tooth materials, irritations of the mucosa)” value in data set [5] is given as “no unwanted side-effects”.
For `[H]/N=C(\N/C(=N/[H])NCCCCCCNC(=N)NC(=N)Nc1ccc(Cl)cc1)Nc1ccc(Cl)cc1` [diacetate], the “Solubility (in words)” value in data set [6] is “sparingly soluble”.
In the case of `[H]/N=C(\N/C(=N/[H])NCCCCCCNC(=N)NC(=N)Nc1ccc(Cl)cc1)Nc1ccc(Cl)cc1` [Solution A], in the data set with Streptococcus mutans [1] (Streptococcus mutans, 24 h, 0.003 wt. %, 0.1 ml in 10 mm hole, 24 hours, 37° C., * = Not effective, read-out: Inhibiting zone diameter), the zone of inhibition at 0.003 % stood at 11 mm. Also, in the data set on Streptococcus mutans [1] (Streptococcus mutans, 24 h, 0.01 wt. %, 0.1 ml in 10 mm hole, 24 hours, 37° C., read-out: Inhibiting zone diameter), the zone of inhibition at 0.01 % is 13 mm. In the data set on Streptococcus mutans [1] (Streptococcus mutans, 24 h, 0.03 wt. %, 0.1 ml in 10 mm hole, 24 hours, 37° C., read-out: Inhibiting zone diameter), the zone of inhibition at 0.03 % stood at 17 mm. Further, the “Solubility (in words)” value in data set [6] (listed as digluconate) was “water-soluble”.
